Source: article PMC5609601 (Brazilian Journal of Medical and Biological Research, 2017)
Entries after “also recorded” stand apart in the source; their conditions may differ. Read-outs that look alike come from different tables or passages of the source.

Tests used:
[1] = Adsorption of the constituents by the intestinal wall; type: in vitro ADME, rat; conditions: for Concentration in incubation solution with intestinal wall: 37.5±0.5°C; for Absorption in the intestinal wall: curcumin SEDDS
P-gp = type: in vivo, rat; conditions: for Influence of verapamil hydrochloride on Papp / Influence of verapamil hydrochloride on absorption / Influence of verapamil hydrochloride on Ka / Influence of verapamil hydrochloride on A%: ileum; for Influence of verapamil hydrochloride on Papp / Influence of verapamil hydrochloride on Ka: high-concentration inhibitor; for Substrate of P-glycoprotein: inferred from verapamil hydrochloride effect
MRP2 = MRP2 (Rattus norvegicus, UniProt Q63120); type: in vivo; conditions: for Substrate of MRP2: inferred from probenecid effect
rat small intestines [2] = experiment: In situ single pass intestinal perfusion: absorption site and drug concentration; type: in vivo; conditions: for Concentration dependence of absorption / Comparison of absorption among intestinal segments: duodenum; for Concentration dependence of absorption: low, medium, high, higher concentrations; for Comparison of absorption among intestinal segments: jejunum, ileum, colon; for Comparison of absorption among intestinal segments / Main intestinal absorption site: higher concentration group; for Main intestinal absorption site: different intestinal segments; for Transport (absorption) mechanism: rat small intestine
[3] = Stability of curcumin constituents; type: physicochemical, rat; conditions: for Concentration in blank intestinal perfusion fluid: 37.5±0.5°C, drug-containing SEDDS; for Stability in pH 6.8 K-R blank intestinal perfusion fluid: within 8 h, curcumin SEDDS
rat small intestines [4] = type: in vivo; conditions: duodenum; for Influence of 2,4-dinitrophenol on Ka / Influence of 2,4-dinitrophenol on Papp / Influence of 2,4-dinitrophenol on A%: compared with the group without inhibitor; for Influence of 2,4-dinitrophenol on A%: 1.0, 2.0, 5.0 mmol/L
[5] = jejunum, high-concentration probenecid
[6] = jejunum, probenecid 0.02, 0.04, 0.08 mmol/L

Sequence of MRP2 (Q63120 whole entry, the tested form may be a part): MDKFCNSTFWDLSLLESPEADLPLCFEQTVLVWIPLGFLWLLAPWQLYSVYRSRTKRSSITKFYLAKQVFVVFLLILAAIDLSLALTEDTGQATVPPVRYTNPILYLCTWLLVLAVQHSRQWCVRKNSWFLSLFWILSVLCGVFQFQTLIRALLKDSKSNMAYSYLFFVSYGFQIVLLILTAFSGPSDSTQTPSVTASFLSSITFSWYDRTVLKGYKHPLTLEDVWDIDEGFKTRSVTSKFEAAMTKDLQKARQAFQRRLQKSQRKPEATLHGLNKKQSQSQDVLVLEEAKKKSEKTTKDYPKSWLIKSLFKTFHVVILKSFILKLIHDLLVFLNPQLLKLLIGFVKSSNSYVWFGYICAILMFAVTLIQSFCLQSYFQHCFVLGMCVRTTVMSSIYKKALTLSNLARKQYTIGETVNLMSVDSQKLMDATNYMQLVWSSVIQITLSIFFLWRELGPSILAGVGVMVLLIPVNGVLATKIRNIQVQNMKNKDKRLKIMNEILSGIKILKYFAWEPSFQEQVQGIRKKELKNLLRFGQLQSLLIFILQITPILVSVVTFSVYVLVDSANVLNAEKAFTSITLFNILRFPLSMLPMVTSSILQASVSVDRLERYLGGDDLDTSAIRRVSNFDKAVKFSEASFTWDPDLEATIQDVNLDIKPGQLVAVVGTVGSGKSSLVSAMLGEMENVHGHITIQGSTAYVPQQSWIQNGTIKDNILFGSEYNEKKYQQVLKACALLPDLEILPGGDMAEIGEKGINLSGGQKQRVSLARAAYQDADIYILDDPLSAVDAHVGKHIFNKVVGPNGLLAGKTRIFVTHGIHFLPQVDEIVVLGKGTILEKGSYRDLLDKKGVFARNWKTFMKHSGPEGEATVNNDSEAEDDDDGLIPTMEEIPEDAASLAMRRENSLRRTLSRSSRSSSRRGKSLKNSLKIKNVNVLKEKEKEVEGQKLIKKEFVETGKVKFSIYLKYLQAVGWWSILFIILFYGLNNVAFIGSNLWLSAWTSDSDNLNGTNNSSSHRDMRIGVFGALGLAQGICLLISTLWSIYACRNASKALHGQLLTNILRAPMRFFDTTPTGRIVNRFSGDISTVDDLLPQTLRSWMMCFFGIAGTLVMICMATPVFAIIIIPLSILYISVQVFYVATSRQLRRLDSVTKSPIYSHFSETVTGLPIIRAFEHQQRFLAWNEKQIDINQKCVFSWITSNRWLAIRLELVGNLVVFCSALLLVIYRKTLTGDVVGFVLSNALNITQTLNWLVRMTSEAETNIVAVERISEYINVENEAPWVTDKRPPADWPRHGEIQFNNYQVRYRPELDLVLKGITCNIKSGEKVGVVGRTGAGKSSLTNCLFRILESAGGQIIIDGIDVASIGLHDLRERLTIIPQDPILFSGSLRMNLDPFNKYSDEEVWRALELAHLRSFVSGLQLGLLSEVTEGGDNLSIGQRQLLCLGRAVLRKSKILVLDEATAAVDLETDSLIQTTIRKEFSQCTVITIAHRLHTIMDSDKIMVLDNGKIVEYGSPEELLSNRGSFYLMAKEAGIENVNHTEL

Concentration in incubation solution with intestinal wall ([1]; time 0 min)	Concentration in incubation solution with intestinal wall ([1]; time 30 min)	Concentration in incubation solution with intestinal wall ([1]; time 60 min)	Concentration in incubation solution with intestinal wall ([1]; time 90 min)	Concentration in incubation solution with intestinal wall ([1]; time 120 min)	Influence of verapamil hydrochloride on Papp (P-gp)	Influence of probenecid on Papp (MRP2; [5])	Concentration dependence of absorption (rat small intestines [2])	Concentration in blank intestinal perfusion fluid ([3]; time 0 h)	Concentration in blank intestinal perfusion fluid ([3]; time 1 h)	Concentration in blank intestinal perfusion fluid ([3]; time 2 h)	Concentration in blank intestinal perfusion fluid ([3]; time 4 h)	Concentration in blank intestinal perfusion fluid ([3]; time 8 h)	Stability in pH 6.8 K-R blank intestinal perfusion fluid [3]	Absorption in the intestinal wall [1]	Influence of verapamil hydrochloride on absorption (P-gp)	Influence of verapamil hydrochloride on Ka (P-gp)	Substrate of P-glycoprotein (P-gp)	Compound	Change of A% with probenecid concentration (MRP2; jejunum)	Change of Ka with probenecid concentration (MRP2; jejunum)	further results
719.250 µg/mL	717.346 µg/mL	716.858 µg/mL	716.019 µg/mL	701.751 µg/mL	significantly accelerated	significantly increased	concentration inhibiting effect	685 µg/mL	684 µg/mL	682 µg/mL	678 µg/mL	668 µg/mL	stable					COc1cc(/C=C/C(=O)CC(=O)/C=C/c2ccc(O)c(OC)c2)ccc1O [Cur, curcumin]	increased with the increase in probenecid concentration	increased with the increase in probenecid concentration	
166.950 µg/mL	165.354 µg/mL	164.023 µg/mL	163.724 µg/mL	162.104 µg/mL	significantly accelerated	significantly increased	saturation phenomenon	159 µg/mL	158 µg/mL	157 µg/mL	156 µg/mL	154 µg/mL	stable	no obvious absorption	significantly improve the absorption	significantly accelerated	may be the substrates	COc1cc(/C=C/C(O)=C/C(=O)/C=C/c2ccc(O)cc2)ccc1O [DMCur, demethoxycurcumin]	increased with the increase in probenecid concentration	increased with the increase in probenecid concentration	Influence of verapamil hydrochloride on A% (P-gp; medium-concentration and high-concentration inhibitor): significant increase; Substrate of MRP2 (MRP2): may be the substrates; Influence of probenecid on A% (MRP2; [6]): significantly increased; Energy dependence of intestinal absorption process (rat small intestines [4]): energy-dependent action; Influence of 2,4-dinitrophenol on Ka (rat small intestines [4]): decreased significantly (P<0.05); Influence of 2,4-dinitrophenol on Papp (rat small intestines [4]): decreased significantly (P<0.05); Influence of 2,4-dinitrophenol on A% (rat small intestines [4]): decreased in an extremely significant manner (P<0.01); Comparison of absorption among intestinal segments (rat small intestines [2]): duodenum > colon ≈ jejunum > ileum; also recorded: better in the duodenum and relatively poorer in the ileum; Main intestinal absorption site (rat small intestines [2]): duodenum; Absorption in duodenum compared to colon (rat small intestines [2]; one-way ANOVA): increased significantly (P<0.05); Absorption in duodenum compared with ileum (rat small intestines [2]; one-way ANOVA): increased (P<0.01) in an extremely significant manner; Absorption in jejunum compared with ileum (rat small intestines [2]; one-way ANOVA): increased significantly (P<0.05); Transport (absorption) mechanism (rat small intestines [2]): active transport in the carrier-mediated transport
27.300 µg/mL	27.288 µg/mL	27.247 µg/mL	27.173 µg/mL	26.253 µg/mL	significantly accelerated	significantly increased	concentration inhibiting effect	26 µg/mL	26 µg/mL	26 µg/mL	26 µg/mL	25 µg/mL	stable	no obvious absorption	significantly improve the absorption	significantly accelerated	may be the substrates	O=C(/C=C/c1ccc(O)cc1)CC(=O)/C=C/c1ccc(O)cc1 [BDMCur, bisdemethoxycurcumin]			Influence of verapamil hydrochloride on A% (P-gp; verapamil hydrochloride 0.05, 0.1, 0.5 mmol/L): almost no influence; Substrate of MRP2 (MRP2): may be the substrates; Change of A% when probenecid concentration was further increased (MRP2; jejunum, above medium concentration): barely changed; Influence of probenecid on Ka (MRP2; [5]): significantly increased; Influence of probenecid on A% (MRP2; jejunum, medium-concentration probenecid): significantly increased; Influence of probenecid on A% (MRP2; [6]): significantly increased; Energy dependence of intestinal absorption process (rat small intestines [4]): energy-dependent action; Influence of 2,4-dinitrophenol on Ka (rat small intestines [4]): decreased significantly (P<0.05); Influence of 2,4-dinitrophenol on Papp (rat small intestines [4]): decreased significantly (P<0.05); Influence of 2,4-dinitrophenol on A% (rat small intestines [4]): decreased in an extremely significant manner (P<0.01); Comparison of absorption among intestinal segments (rat small intestines [2]): not significantly different (P>0.05); also recorded: better in the duodenum and relatively poorer in the ileum; Main intestinal absorption site (rat small intestines [2]): duodenum; Absorption in duodenum compared to colon (rat small intestines [2]; one-way ANOVA): increased (P<0.01) in an extremely significant manner; Transport (absorption) mechanism (rat small intestines [2]): active transport in the carrier-mediated transport
